ChEMBL document CHEMBL1201862, “PubChem BioAssay data set” (2004)
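All cell lines were grown in 96-well plates and treated with compound for 48 hours. Here, GI50 denotes the concentration required for 50% inhibition of growth.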 Calls of active or inactive are those of the source. Rule as the data show it: active = GI50 up to about 1.1 µM and inactive = higher.

What was measured:
Assay in all cases: inhibition of tumour cell growth, NCI panel, 48 h
HCT-15 = system: HCT-15
HL-60 = system: HL-60
HOP-92 = system: HOP-92
SNB-19 = system: SNB-19
SK-MEL-28 = system: SK-MEL-28
786-0 = system: 786-0
MDA-N = system: MDA-N
IGROV-1 = system: IGROV-1
KM12 = system: KM12
SF-268 = system: SF-268
COLO 205 = system: COLO 205
HOP-62 = system: HOP-62
DU-145 = system: DU-145
NCI/ADR-RES = system: NCI/ADR-RES
HT-29 = system: HT-29
NCI-H23 = system: NCI-H23
CAKI-1 = system: CAKI-1
LOX IMVI = system: LOX IMVI
K562 = system: K562
NCI-H226 = system: NCI-H226

O=C(NCCC(F)(F)C(F)(F)C(F)(F)C(F)(F)F)NC1OC(CO)C(O)C(O)C1O (stereo unspecified)
GI50 (HCT-15): > 100 µM | GI50 (HL-60): > 100 µM (inactive) | GI50 (HOP-92): > 100 µM (inactive) | GI50 (SNB-19): > 100 µM (inactive) | GI50 (SK-MEL-28): > 100 µM (inactive) | GI50 (786-0): > 100 µM (inactive) | GI50 (MDA-N): > 100 µM (inactive) | GI50 (IGROV-1): > 100 µM (inactive) | GI50 (KM12): > 100 µM (inactive) | GI50 (SF-268): > 100 µM (inactive) | GI50 (COLO 205): > 100 µM (inactive) | GI50 (HOP-62): > 100 µM (inactive) | GI50 (DU-145): > 100 µM (inactive) | GI50 (NCI/ADR-RES): > 100 µM (inactive) | GI50 (HT-29): > 100 µM (inactive) | GI50 (NCI-H23): > 100 µM (inactive) | GI50 (CAKI-1): > 100 µM (inactive) | GI50 (LOX IMVI): > 100 µM (inactive) | GI50 (K562): > 100 µM (inactive)

CN(C(=O)c1cc2c(s1)sc1c(=O)n(C)c3ccccc3c12)c1ccccc1
GI50 (HCT-15): 1.72 µM | GI50 (HOP-92): 42.4 µM (inactive) | GI50 (NCI-H226): 5.48 µM (inactive) | GI50 (SNB-19): 31.3 µM (inactive) | GI50 (SK-MEL-28): > 100 µM (inactive) | GI50 (786-0): 5.27 µM (inactive) | GI50 (MDA-N): 0.61 µM (active) | GI50 (IGROV-1): 4.37 µM (inactive) | GI50 (KM12): 0.729 µM (active) | GI50 (COLO 205): > 100 µM (inactive) | GI50 (DU-145): 69.8 µM (inactive) | GI50 (NCI/ADR-RES): 4.54 µM (inactive) | GI50 (HT-29): 2.77 µM (inactive) | GI50 (NCI-H23): 7.73 µM (inactive) | GI50 (CAKI-1): 7.41 µM (inactive) | GI50 (LOX IMVI): 18.5 µM (inactive) | GI50 (K562): 2.51 µM (inactive)

O=c1[nH]nc(Cc2ccccc2)n1/N=C/c1ccccc1Cl
GI50 (HCT-15): > 100 µM | GI50 (HOP-92): 95.9 µM (inactive) | GI50 (NCI-H226): > 100 µM (inactive) | GI50 (SNB-19): > 100 µM (inactive) | GI50 (786-0): 41.1 µM (inactive) | GI50 (MDA-N): > 100 µM (inactive) | GI50 (IGROV-1): > 100 µM (inactive) | GI50 (KM12): > 100 µM (inactive) | GI50 (SF-268): > 100 µM (inactive) | GI50 (COLO 205): > 100 µM (inactive) | GI50 (DU-145): > 100 µM (inactive) | GI50 (NCI/ADR-RES): > 100 µM (inactive) | GI50 (HT-29): > 100 µM (inactive) | GI50 (NCI-H23): > 100 µM (inactive) | GI50 (CAKI-1): > 100 µM (inactive) | GI50 (LOX IMVI): > 100 µM (inactive) | GI50 (K562): > 100 µM (inactive)

CC(=O)OCC1OC(O[C@@H]2C[C@H]3C(C)(C)[C@H](OC(C)=O)CC[C@]3(C)[C@H]3CC[C@]4(C)C(=CC[C@H]4[C@@H](C)C[C@@H](O)[C@H](O)C(C)(C)O)[C@@]32C)C(O)C(O)C1O (stereo partly specified)
GI50 (HCT-15): 17.3 µM | GI50 (HL-60): 15.7 µM (inactive) | GI50 (HOP-92): 17 µM (inactive) | GI50 (SNB-19): 15.1 µM (inactive) | GI50 (SK-MEL-28): 15.9 µM (inactive) | GI50 (786-0): 16.4 µM (inactive) | GI50 (MDA-N): 18.4 µM (inactive) | GI50 (IGROV-1): 18.6 µM (inactive) | GI50 (SF-268): 15.8 µM (inactive) | GI50 (COLO 205): 14 µM (inactive) | GI50 (HOP-62): 15.8 µM (inactive) | GI50 (DU-145): 17.3 µM (inactive) | GI50 (NCI/ADR-RES): > 100 µM (inactive) | GI50 (HT-29): 17.4 µM (inactive) | GI50 (NCI-H23): 18.6 µM (inactive) | GI50 (CAKI-1): 14.2 µM (inactive) | GI50 (LOX IMVI): 16.2 µM (inactive) | GI50 (K562): 18.3 µM (inactive)

CCN1C[C@]2(C)CC[C@H](OCc3ccccc3)C34C5C[C@@H]6CC[C@](O)(C(C[C@@H]32)C14)C5[C@H]6OCc1ccccc1 (stereo partly specified)
GI50 (HCT-15): > 100 µM | GI50 (HOP-92): > 100 µM (inactive) | GI50 (NCI-H226): > 100 µM (inactive) | GI50 (SNB-19): > 100 µM (inactive) | GI50 (SK-MEL-28): > 100 µM (inactive) | GI50 (786-0): > 100 µM (inactive) | GI50 (MDA-N): 75.5 µM (inactive) | GI50 (IGROV-1): 92.3 µM (inactive) | GI50 (KM12): 38.5 µM (inactive) | GI50 (SF-268): > 100 µM (inactive) | GI50 (COLO 205): 42 µM (inactive) | GI50 (HOP-62): > 100 µM (inactive) | GI50 (DU-145): > 100 µM (inactive) | GI50 (NCI/ADR-RES): > 100 µM (inactive) | GI50 (HT-29): 55.2 µM (inactive) | GI50 (NCI-H23): > 100 µM (inactive) | GI50 (LOX IMVI): > 100 µM (inactive) | GI50 (K562): 55.6 µM (inactive)

CCCCOC(=O)NC(c1ccccc1)C(O)C(=O)OC1C[C@@]2(O)C(OC(=O)c3ccccc3)C3[C@](C)(C(=O)[C@H](OC(C)=O)C(=C1C)C2(C)C)[C@@H](O)C[C@H]1OC[C@@]31OC(C)=O (stereo partly specified)
GI50 (HCT-15): 0.145 µM | GI50 (HL-60): 0.00345 µM (active) | GI50 (HOP-92): 5.7 µM (inactive) | GI50 (SNB-19): 0.0361 µM (active) | GI50 (786-0): 0.00875 µM (active) | GI50 (MDA-N): 0.00176 µM (active) | GI50 (IGROV-1): 0.00405 µM (active) | GI50 (KM12): 0.0031 µM (active) | GI50 (SF-268): 0.0113 µM (active) | GI50 (COLO 205): 0.00652 µM (active) | GI50 (HOP-62): 0.0239 µM (active) | GI50 (DU-145): 0.0125 µM (active) | GI50 (NCI/ADR-RES): 2 µM (inactive) | GI50 (HT-29): 0.00228 µM (active) | GI50 (NCI-H23): 0.0139 µM (active) | GI50 (LOX IMVI): 0.00427 µM (active) | GI50 (K562): 0.00447 µM (active)
